Test results published in ChEMBL document CHEMBL2163253, “Identification and preliminary characterization of a potent, safe, and orally efficacious inhibitor of acyl-CoA:diacylglycerol acyltransferase 1” (J Med Chem, 2012).
Calls of active or inactive are those of the source. No cut-off for these calls is given here.

Columns and labels:
[1] = target: T1, Diacylglycerol O-acyltransferase 1 (Homo sapiens, UniProt O75907); test: biochemical
T1 sequence (O75907 whole entry): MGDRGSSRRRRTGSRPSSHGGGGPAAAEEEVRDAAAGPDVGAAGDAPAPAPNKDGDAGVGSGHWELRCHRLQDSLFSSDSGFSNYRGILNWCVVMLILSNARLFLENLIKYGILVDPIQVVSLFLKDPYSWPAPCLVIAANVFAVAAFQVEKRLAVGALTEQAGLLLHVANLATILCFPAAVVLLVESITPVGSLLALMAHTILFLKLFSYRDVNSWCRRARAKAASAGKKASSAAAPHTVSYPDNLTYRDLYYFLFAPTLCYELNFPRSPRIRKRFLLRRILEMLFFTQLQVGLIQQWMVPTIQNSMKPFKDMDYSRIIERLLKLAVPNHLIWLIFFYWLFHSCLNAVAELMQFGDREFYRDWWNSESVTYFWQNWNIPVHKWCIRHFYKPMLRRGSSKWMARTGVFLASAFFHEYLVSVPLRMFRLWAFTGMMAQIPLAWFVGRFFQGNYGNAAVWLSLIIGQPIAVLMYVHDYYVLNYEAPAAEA
Description: Inhibition of N-terminal His6-tagged human recombinant DGAT1 expressed in insect cell membrane using [1-14C]decanoyl-CoA substrate by phospholipid flash plate assay

[2] = Stability in human liver microsomes assessed as parent compound remaining measured after 60 mins; assay type: ADME, Microsome; conditions: read-out: Stability
[3] = Permeability in human Caco2 cells at 0.5 uM at pH 7.4; assay type: ADME, cell-based; conditions: Caco-2, pH 7.4, read-out: permeability
Mus musculus [4] = test: Reduction in serum triglyceride level in overnight fasted DIO mouse model at 0.3 mg/kg, po administered as single dose 1 hr before and for 5 hrs after oral corn oil bolus challenge; assay type: functional, organism-based; design: dose 0.3 mg/kg
Canis familiaris [5] = species on record: Canis familiaris; test: Toxicity in dog assessed as incidence of hemodynamic effect measured at highest compound concentration; assay type: organism-based, Canis lupus familiaris; conditions: in vivo
Rattus norvegicus [6] = species on record: Rattus norvegicus; test: Toxicity in rat assessed as changes in gastrointestinal transit measured at highest compound concentration; assay type: organism-based; conditions: in vivo
Canis familiaris [7] = test: AUC in dog dosed orally for 2 weeks assessed as terminal exposure; conditions: in vivo, po, 336 h
[8] = Oral bioavailability in rat at 5 mg/kg administered as single dose; assay type: ADME, organism-based; conditions: in vivo
[9] = Plasma concentration in CD1 mouse postprandial hyperlipidemia model at 3 mg/kg, po administered as single dose 1 hr before oral corn oil bolus challenge and measured after 2 hrs; assay type: ADME, organism-based; design: dose 3 mg/kg, route oral
[10] = Terminal half life in rat at 5 mg/kg, iv administered as single dose; assay type: ADME, organism-based; design: dose 5 mg/kg, route intravenous; conditions: in vivo, read-out: beta t1/2 (converted)
[11] = Volume of distribution at steady state in mouse at 10 mg/kg, iv administered as single dose; assay type: ADME, organism-based; design: dose 10 mg/kg, route intravenous; conditions: in vivo, read-out: Vdss
[12] = target: T1, Diacylglycerol O-acyltransferase 1; test: Inhibition of human DGAT1 expressed in human HeLa cells assessed as reduction in triglyceride synthesis; assay type: cell-based
[13] = Toxicity in dog Purkinje fibers assessed as prolongation of APD90 by Purkinje fibers repolarization assay; assay type: tissue-based, Canis lupus familiaris, Purkinje fiber; conditions: in vitro
[14] = Cmax in rat at 5 mg/kg, po administered as single dose; assay type: ADME, organism-based; design: dose 5 mg/kg, route oral; conditions: in vivo
[15] = Oral bioavailability in mouse at 10 mg/kg administered as single dose; assay type: ADME, organism-based; conditions: in vivo
[16] = Cmax in dog; assay type: ADME, organism-based, Canis lupus familiaris; conditions: plasma
[17] = Plasma concentration in CD1 mouse postprandial hyperlipidemia model at 0.03 mg/kg, po administered as single dose 1 hr before oral corn oil bolus challenge and measured after 2 hrs; assay type: ADME, organism-based; design: dose 0.03 mg/kg, route oral
Mustela putorius furo = species on record: Mustela putorius furo; test: Toxicity in ferret assessed as induction of emesis; assay type: organism-based; conditions: in vivo
[18] = AUC in rat at 5 mg/kg, po administered as single dose; assay type: ADME, organism-based; design: dose 5 mg/kg, route oral; conditions: plasma
[19] = Efflux ratio in human Caco2 cells at 5 uM at pH 7.4; assay type: ADME, cell-based; conditions: Caco-2, pH 7.4
[20] = target: T2, Diacylglycerol O-acyltransferase 1 (Mus musculus, UniProt Q9Z2A7); test: Inhibition of mouse DGAT1 using [1-14C]decanoyl-CoA substrate by phospholipid flash plate assay
T2 sequence (Q9Z2A7 whole entry): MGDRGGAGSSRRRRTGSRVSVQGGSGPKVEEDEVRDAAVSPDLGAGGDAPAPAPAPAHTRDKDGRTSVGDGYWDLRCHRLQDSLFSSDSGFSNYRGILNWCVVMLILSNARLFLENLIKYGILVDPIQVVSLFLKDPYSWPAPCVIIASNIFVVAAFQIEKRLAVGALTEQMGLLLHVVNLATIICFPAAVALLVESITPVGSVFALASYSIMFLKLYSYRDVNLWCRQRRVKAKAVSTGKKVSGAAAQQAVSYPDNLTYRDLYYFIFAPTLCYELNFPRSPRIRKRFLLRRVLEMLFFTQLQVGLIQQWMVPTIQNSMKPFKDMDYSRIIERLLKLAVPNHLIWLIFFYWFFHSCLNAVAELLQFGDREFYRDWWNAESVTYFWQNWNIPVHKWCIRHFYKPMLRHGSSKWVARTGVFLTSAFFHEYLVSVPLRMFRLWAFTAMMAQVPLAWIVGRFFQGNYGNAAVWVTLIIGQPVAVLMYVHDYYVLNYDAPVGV

[21] = Plasma clearance in rat at 5 mg/kg, iv administered as single dose; assay type: ADME, organism-based; design: dose 5 mg/kg, route intravenous
[22] = Terminal half life in mouse at 10 mg/kg, iv administered as single dose; assay type: ADME, organism-based; design: dose 10 mg/kg, route intravenous; conditions: in vivo, read-out: beta t1/2 (converted)
[23] = Efflux ratio in human Caco2 cells at 0.5 uM at pH 7.4; assay type: ADME, cell-based; conditions: Caco-2, pH 7.4
[24] = Cmax in rat; assay type: ADME, organism-based; conditions: plasma
[25] = target: T3, Diacylglycerol O-acyltransferase 2 (Homo sapiens, UniProt Q96PD7); test: Inhibition of human recombinant DGAT2 expressed in insect cell membrane using [1-14C]decanoyl-CoA substrate by phospholipid flash plate assay
T3 sequence (Q96PD7 whole entry): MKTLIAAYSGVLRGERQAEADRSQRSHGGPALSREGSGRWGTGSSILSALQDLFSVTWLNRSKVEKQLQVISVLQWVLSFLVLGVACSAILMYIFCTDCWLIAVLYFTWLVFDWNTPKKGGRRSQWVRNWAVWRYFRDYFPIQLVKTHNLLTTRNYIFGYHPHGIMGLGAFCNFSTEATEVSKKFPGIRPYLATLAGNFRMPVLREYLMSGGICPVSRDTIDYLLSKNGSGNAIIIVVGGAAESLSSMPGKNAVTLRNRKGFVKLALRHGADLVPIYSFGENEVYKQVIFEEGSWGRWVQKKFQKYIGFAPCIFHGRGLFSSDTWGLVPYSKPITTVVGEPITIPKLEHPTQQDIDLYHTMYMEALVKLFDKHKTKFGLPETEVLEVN

[26] = Cmax in mouse at 10 mg/kg, po administered as single dose; assay type: ADME, organism-based; design: dose 10 mg/kg, route oral; conditions: in vivo
Mus musculus [27] = test: Reduction in serum triglyceride level in CD1 mouse postprandial hyperlipidemia model administered orally as single dose 1 hr before oral corn oil bolus challenge and measured after 2 hrs; assay type: functional, organism-based
Rattus norvegicus [28] = test: Toxicity in female rat assessed as toxicity symptoms at terminal compound concentration dosed orally for 2 weeks; assay type: organism-based; conditions: in vivo, po, 336 h
[29] = target: Voltage-gated inwardly rectifying potassium channel KCNH2 (Homo sapiens, UniProt Q12809); test: Inhibition of human ERG by manual patch clamp assay
Chain of Voltage-gated inwardly rectifying potassium channel KCNH2 (Q12809 whole entry): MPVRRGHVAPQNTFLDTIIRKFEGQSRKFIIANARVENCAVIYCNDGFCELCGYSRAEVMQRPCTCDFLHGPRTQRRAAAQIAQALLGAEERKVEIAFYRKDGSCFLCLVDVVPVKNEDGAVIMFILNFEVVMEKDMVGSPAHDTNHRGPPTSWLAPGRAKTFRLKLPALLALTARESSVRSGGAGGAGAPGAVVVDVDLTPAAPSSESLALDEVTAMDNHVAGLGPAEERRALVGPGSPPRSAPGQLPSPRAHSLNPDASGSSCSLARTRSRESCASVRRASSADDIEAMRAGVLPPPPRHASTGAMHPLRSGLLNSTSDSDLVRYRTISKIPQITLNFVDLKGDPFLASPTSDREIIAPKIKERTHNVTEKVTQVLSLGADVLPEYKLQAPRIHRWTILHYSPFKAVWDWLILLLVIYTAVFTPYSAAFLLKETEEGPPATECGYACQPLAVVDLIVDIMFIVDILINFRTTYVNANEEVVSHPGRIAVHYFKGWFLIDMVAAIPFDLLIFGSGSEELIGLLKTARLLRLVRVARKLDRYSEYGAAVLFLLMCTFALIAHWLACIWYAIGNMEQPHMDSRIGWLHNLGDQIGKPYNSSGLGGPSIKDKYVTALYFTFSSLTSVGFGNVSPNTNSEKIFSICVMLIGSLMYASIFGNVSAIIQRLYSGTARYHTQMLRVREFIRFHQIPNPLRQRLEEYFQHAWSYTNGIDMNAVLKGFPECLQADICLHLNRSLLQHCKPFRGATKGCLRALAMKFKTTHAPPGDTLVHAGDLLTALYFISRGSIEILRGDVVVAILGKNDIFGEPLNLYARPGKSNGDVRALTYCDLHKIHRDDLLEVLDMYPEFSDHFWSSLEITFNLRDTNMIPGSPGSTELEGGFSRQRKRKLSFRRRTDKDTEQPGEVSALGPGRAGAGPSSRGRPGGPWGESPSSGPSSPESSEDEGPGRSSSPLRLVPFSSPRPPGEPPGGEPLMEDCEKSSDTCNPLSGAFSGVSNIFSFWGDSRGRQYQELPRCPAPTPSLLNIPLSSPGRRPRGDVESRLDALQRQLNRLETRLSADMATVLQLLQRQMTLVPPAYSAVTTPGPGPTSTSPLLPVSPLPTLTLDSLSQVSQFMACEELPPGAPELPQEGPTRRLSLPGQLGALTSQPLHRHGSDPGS

[30] = AUC in mouse at 10 mg/kg, po administered as single dose; assay type: ADME, organism-based; design: dose 10 mg/kg, route oral; conditions: plasma
Mus musculus [31] = test: Reduction in serum triglyceride level in CD1 mouse postprandial hyperlipidemia model at 3 mg/kg, po administered as single dose 1 hr before oral corn oil bolus challenge and measured after 2 hrs; assay type: functional; design: scale not given: the % may be the effect or the level left
[32] = Plasma concentration in CD1 mouse postprandial hyperlipidemia model at 0.3 mg/kg, po administered as single dose 1 hr before oral corn oil bolus challenge and measured after 2 hrs; assay type: ADME, organism-based; design: dose 0.3 mg/kg, route oral
[33] = Stability in mouse liver microsomes assessed as parent compound remaining measured after 60 mins; assay type: ADME, Microsome; conditions: read-out: Stability
Mus musculus [34] = test: Reduction in serum triglyceride level in CD1 mouse postprandial hyperlipidemia model at 0.3 mg/kg, po administered as single dose 1 hr before oral corn oil bolus challenge and measured after 2 hrs; assay type: functional; design: scale not given: the % may be the effect or the level left
[35] = Plasma clearance in mouse at 10 mg/kg, iv administered as single dose; assay type: ADME, organism-based; design: dose 10 mg/kg, route intravenous
Mus musculus [36] = test: Reduction in serum triglyceride level in CD1 mouse postprandial hyperlipidemia model at 0.03 mg/kg, po administered as single dose 1 hr before oral corn oil bolus challenge and measured after 2 hrs; assay type: functional; design: scale not given: the % may be the effect or the level left
[37] = Volume of distribution at steady state in rat at 5 mg/kg, iv administered as single dose; assay type: ADME, organism-based; design: dose 5 mg/kg, route intravenous; conditions: in vivo, read-out: Vdss
Canis familiaris [38] = test: Toxicity in dog assessed as toxicity symptoms at terminal compound concentration dosed orally for 2 weeks; assay type: organism-based, Canis lupus familiaris; conditions: in vivo, po, 336 h
[39] = Terminal half life in mouse at 10 mg/kg, po administered as single dose; assay type: ADME, organism-based; design: dose 10 mg/kg, route oral; conditions: in vivo, read-out: beta t1/2 (converted)
[40] = Terminal half life in rat at 5 mg/kg, po administered as single dose; assay type: ADME, organism-based; design: dose 5 mg/kg, route oral; conditions: in vivo, read-out: beta t1/2 (converted)
Rattus norvegicus [41] = test: AUC in female rat dosed orally for 2 weeks assessed as terminal exposure; conditions: in vivo, po, 336 h

Nc1c(-c2ccccc2)cnc2ccnn12
IC50 [1]: > 10 µM

Nc1c(-c2ccc(Br)cc2)cnc2ccnn12
remaining at 1 h [2]: < 5%

Nc1c(-c2ccccc2Br)cnc2ccnn12
IC50 [1]: > 10 µM | remaining at 1 h [2]: 69%

CC(C)(C)c1ccc(-c2cnc3ccnn3c2N)cc1
remaining at 1 h [2]: 16%

CC(C)c1ccc(-c2cnc3ccnn3c2N)cc1
remaining at 1 h [2]: < 5%

CC(C)(C)c1ccc(-c2cncnc2N)cc1
remaining at 1 h [2]: 73%

Nc1c(-c2ccc([C@H]3CC[C@H](CC(=O)O)CC3)cc2)cnc2ccnn12
Papp at 0.5 µM [3]: 84 ×10⁻⁶ cm/s | IC50 [1]: 0.008 µM | Activity (Mus musculus [4]): Active | Activity (Canis familiaris [5]): Non-toxic | Activity (Rattus norvegicus [6]): Non-toxic | AUC (Canis familiaris [7]): 789 µg·h/mL | bioavailability [8]: 91% | concentration at 2 h [9]: 3100 ng/mL | half-life [10]: 3.8 h | Vd [11]: 0.3 L/kg | IC50 [12]: 0.078 µM | Activity [13]: Non-toxic | Cmax [14]: 9300 ng/mL | bioavailability [15]: 78% | Cmax [16]: 20500 ng/mL | concentration at 2 h [17]: 33 ng/mL | Activity (Mustela putorius furo): Non-toxic | AUC [18]: 130 µg·h/mL | efflux ratio at 5 µM [19]: 1.1 | IC50 [20]: 0.008 µM | remaining at 1 h [2]: 97% | clearance [21]: 0.833 mL/min/kg | half-life [22]: 4.6 h | efflux ratio at 0.5 µM [23]: 1.4 | Cmax [24]: 30200 ng/mL | IC50 [25]: > 10 µM | Cmax [26]: 17400 ng/mL | Activity (Mus musculus [27]): Dose-dependent effect | Activity (Rattus norvegicus [28]): Non-toxic | IC50 [29]: > 300 µM | AUC [30]: 151 µg·h/mL | Activity (Mus musculus [31]): 90% | concentration at 2 h [32]: 360 ng/mL | remaining at 1 h [33]: 99% | Activity (Mus musculus [34]): 60% | clearance [35]: 1.67 mL/min/kg | Activity (Mus musculus [36]): 40% | Vd [37]: 0.3 L/kg | Activity (Canis familiaris [38]): Non-toxic | half-life [39]: 5.1 h | half-life [40]: 5.6 h | AUC (Rattus norvegicus [41]): 3455 µg·h/mL

Nc1c(-c2cccc(Br)c2)cnc2ccnn12
IC50 [1]: > 10 µM | remaining at 1 h [2]: < 5%

Nc1c(-c2ccc(C(=O)O)cc2)cnc2ccnn12
IC50 [1]: > 10 µM | remaining at 1 h [2]: 100%

CS(=O)(=O)c1ccc(-c2cnc3ccnn3c2N)cc1
IC50 [1]: > 10 µM | remaining at 1 h [2]: 91%
